The source of these data is ChEMBL document CHEMBL1268971, “4,5-Dihydro-1H-pyrazolo[4,3-h]quinazolines as potent and selective Polo-like kinase 1 (PLK1) inhibitors” (Bioorg Med Chem Lett, 2010).

Series [1] concerns the target Serine/threonine-protein kinase PLK2 (Homo sapiens, UniProt Q9NYY3). Briefly: Inhibition of PLK2.
The target in series [2] is Serine/threonine-protein kinase PLK3 (Homo sapiens, UniProt Q9H4B4). In words: Inhibition of PLK3.
Series [3] in a line: Solubility of the compound at pH 7. It is filed as physicochemical. The note with it: buffer.
Series [4] addresses Cyclin-dependent kinase 2/cyclin A (Homo sapiens, UniProt P24941). In words: Inhibition of CDK2/Cyclin A. The class given is protein-complex assay.
A short description of series [5]: Inhibition of casein kinase 2.
Series [6] concerns the target T1, Receptor-type tyrosine-protein kinase FLT3 (Homo sapiens, UniProt P36888).
T1 sequence (P36888 whole entry): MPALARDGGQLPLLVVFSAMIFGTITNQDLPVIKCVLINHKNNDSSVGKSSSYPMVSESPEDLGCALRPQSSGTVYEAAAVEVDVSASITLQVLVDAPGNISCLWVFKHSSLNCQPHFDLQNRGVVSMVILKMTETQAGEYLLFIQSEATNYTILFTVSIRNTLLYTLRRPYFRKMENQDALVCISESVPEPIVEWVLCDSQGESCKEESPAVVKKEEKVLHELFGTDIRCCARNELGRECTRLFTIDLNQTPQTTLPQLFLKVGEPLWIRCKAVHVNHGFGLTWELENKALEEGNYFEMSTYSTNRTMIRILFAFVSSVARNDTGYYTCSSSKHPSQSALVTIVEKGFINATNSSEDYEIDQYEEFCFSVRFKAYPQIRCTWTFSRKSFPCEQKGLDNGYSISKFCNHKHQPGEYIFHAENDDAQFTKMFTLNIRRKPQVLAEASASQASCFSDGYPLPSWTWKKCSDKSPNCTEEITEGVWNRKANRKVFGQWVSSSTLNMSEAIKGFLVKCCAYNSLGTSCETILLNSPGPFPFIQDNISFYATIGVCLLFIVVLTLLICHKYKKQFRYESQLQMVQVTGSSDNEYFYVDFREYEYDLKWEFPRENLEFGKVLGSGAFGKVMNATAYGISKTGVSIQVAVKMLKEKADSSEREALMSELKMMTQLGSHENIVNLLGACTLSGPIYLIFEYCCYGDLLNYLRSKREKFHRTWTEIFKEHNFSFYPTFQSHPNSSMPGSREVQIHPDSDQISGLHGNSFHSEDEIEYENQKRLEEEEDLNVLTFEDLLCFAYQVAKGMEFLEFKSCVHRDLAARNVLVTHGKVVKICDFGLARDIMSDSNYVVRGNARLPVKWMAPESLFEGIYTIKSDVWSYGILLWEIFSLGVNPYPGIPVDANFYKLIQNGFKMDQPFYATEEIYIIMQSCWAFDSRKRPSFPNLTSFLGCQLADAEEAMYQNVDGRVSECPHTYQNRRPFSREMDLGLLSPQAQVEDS
Briefly: Inhibition of FLT3.

Series [7] concerns the target Serine/threonine-protein kinase Nek6 (Homo sapiens, UniProt Q9HC98). In words: Inhibition of NEK6.
Series [8] in a line: Inhibition of PDGFR.
Series [9] addresses ALK tyrosine kinase receptor (Homo sapiens, UniProt Q9UM73). In words: Inhibition of ALK.
Series [10] can be described thus: Solubility of the compound at 105 Tween 80. It is filed as physicochemical.
The nature of series [11]: Permeability of the compound by PAMPA. It is filed as ADME.
A short description of series [12]: Intrinsic clearance in human liver microsomes. It is filed as ADME, Microsome.
Series [13] can be described thus: AUC (0 to infinity) in CD1 mouse at 10 mg/kg, iv administered as single dose by LC/MS/MS analysis. It is filed as ADME, organism-based. The arrangement: time infinity, dose 10 mg/kg, route intravenous. The following applies: plasma.
Series [14] is described as follows: Clearance in CD1 mouse at 10 mg/kg, iv administered as single dose by LC/MS/MS analysis. The following applies: in vivo. Set-up: dose 10 mg/kg, route intravenous. It is filed as ADME, organism-based.
A short description of series [15]: Volume of distribution at steady state in CD1 mouse at 10 mg/kg, iv administered as single dose by LC/MS/MS analysis. The following applies: in vivo, read-out: Vdss. It is filed as ADME, organism-based. The arrangement: dose 10 mg/kg, route intravenous.
The nature of series [16]: Terminal half life in CD1 mouse at 10 mg/kg, iv administered as single dose by LC/MS/MS analysis. The note with it: in vivo, read-out: beta t1/2 (converted). It is filed as ADME, organism-based. The arrangement: dose 10 mg/kg, route intravenous.
The nature of series [17]: Cmax in CD1 mouse at 10 mg/kg, po administered as single dose by LC/MS/MS analysis. It is filed as ADME, organism-based. The arrangement: dose 10 mg/kg, route oral. The following applies: in vivo.
Series [18] in a line: AUC (0 to infinity) in CD1 mouse at 10 mg/kg, po administered as single dose by LC/MS/MS analysis. The class given is ADME, organism-based. Set-up: time infinity, dose 10 mg/kg, route oral. The following applies: plasma.
Series [19] can be described thus: Terminal half life in CD1 mouse at 10 mg/kg, po administered as single dose by LC/MS/MS analysis. The following applies: in vivo, read-out: beta t1/2 (converted). The class given is ADME, organism-based. The arrangement: dose 10 mg/kg, route oral.
The nature of series [20]: Oral bioavailability in CD1 mouse at 10 mg/kg administered as single dose by LC/MS/MS analysis. The class given is ADME, organism-based. The following applies: in vivo.
The test system of series [21] is A2780. Briefly: cells. The note with it: Homo sapiens, A2780, 72 h.

Values after ≈ are worked out from the molar mass of the structure shown.

Chain of Serine/threonine-protein kinase PLK2 (Q9NYY3 whole entry): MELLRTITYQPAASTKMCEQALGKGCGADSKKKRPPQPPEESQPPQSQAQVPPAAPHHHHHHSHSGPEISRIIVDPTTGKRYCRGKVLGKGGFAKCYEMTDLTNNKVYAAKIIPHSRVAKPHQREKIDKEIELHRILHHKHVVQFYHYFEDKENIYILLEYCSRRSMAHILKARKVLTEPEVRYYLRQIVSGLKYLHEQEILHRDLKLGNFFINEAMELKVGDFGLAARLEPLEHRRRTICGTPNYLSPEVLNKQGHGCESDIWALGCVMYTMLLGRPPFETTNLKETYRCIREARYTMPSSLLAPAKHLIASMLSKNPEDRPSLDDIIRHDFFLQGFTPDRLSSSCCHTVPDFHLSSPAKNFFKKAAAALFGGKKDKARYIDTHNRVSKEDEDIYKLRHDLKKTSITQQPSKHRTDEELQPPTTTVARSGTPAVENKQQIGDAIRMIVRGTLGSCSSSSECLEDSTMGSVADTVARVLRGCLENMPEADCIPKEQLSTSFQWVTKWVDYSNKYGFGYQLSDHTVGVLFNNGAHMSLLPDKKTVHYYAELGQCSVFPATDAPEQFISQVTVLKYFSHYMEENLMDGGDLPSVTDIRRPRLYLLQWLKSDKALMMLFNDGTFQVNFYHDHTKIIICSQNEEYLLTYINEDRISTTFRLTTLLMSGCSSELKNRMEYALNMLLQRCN
Chain of Serine/threonine-protein kinase PLK3 (Q9H4B4 whole entry): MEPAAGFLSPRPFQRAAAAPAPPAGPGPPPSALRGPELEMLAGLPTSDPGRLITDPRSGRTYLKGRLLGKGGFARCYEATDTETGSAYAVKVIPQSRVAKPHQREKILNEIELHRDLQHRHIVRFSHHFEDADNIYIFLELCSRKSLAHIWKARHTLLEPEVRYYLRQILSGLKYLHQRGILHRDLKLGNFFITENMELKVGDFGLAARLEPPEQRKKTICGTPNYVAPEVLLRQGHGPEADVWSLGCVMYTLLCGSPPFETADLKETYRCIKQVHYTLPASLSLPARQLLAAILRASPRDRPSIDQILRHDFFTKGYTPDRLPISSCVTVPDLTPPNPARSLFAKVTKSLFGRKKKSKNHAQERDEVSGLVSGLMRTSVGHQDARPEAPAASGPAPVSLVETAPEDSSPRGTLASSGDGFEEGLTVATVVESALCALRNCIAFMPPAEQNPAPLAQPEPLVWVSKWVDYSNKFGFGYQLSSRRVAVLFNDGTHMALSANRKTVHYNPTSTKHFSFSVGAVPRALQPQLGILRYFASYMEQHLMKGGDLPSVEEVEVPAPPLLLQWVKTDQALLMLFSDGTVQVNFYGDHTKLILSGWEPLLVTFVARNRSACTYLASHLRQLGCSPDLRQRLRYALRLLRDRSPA
Chain of ALK tyrosine kinase receptor (Q9UM73 whole entry): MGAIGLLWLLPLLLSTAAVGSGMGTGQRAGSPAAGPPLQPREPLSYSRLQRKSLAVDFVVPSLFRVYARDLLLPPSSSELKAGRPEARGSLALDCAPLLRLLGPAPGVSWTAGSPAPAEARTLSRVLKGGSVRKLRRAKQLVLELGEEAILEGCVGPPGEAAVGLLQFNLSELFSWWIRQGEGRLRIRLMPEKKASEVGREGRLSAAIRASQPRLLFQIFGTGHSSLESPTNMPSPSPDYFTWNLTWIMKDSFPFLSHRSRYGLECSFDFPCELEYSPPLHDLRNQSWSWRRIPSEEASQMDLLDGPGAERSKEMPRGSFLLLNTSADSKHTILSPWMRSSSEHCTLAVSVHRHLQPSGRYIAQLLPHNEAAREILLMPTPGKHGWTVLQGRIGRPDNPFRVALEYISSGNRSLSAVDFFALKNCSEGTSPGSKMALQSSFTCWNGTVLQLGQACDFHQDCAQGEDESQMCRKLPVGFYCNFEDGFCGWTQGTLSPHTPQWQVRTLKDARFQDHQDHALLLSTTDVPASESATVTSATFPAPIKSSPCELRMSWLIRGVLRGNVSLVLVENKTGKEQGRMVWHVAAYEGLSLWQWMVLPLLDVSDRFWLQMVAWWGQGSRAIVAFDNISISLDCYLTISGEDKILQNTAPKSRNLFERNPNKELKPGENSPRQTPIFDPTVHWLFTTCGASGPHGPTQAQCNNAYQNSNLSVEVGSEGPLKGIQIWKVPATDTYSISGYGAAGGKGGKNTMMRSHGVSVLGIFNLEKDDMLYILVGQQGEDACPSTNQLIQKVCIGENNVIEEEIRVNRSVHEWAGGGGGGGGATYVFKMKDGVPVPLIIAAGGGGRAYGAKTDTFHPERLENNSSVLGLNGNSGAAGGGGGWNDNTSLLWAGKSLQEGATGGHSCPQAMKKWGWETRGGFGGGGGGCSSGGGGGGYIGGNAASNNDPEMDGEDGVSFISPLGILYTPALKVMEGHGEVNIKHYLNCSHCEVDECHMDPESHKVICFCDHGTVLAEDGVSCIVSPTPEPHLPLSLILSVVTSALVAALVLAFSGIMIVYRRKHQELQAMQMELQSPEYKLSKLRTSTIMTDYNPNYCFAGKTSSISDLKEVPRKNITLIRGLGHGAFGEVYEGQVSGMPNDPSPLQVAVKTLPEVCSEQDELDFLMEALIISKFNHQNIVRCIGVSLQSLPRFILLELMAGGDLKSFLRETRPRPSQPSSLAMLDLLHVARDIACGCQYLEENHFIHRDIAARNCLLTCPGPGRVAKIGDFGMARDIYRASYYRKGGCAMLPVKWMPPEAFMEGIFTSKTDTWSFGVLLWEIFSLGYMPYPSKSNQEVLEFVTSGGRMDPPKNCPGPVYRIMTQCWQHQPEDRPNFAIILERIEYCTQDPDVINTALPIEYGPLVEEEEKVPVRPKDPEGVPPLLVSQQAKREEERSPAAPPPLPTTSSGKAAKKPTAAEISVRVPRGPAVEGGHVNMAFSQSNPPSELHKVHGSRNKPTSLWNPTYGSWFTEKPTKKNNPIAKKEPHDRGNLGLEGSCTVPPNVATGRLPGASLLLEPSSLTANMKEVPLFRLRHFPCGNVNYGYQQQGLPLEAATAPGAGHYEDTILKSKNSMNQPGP
Chain of Serine/threonine-protein kinase Nek6 (Q9HC98 whole entry): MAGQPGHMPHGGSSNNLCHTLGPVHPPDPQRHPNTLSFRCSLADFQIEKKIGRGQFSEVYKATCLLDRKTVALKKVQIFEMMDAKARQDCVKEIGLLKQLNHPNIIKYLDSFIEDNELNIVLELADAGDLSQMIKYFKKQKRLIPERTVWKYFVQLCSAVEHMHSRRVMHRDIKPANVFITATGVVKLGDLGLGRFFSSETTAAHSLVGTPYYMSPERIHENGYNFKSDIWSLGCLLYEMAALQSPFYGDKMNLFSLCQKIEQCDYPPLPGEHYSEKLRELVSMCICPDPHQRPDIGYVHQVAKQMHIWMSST

As for `C=Cn1nc(C(N)=O)c2c1-c1nc(Nc3cc(N4CCN(C)CC4)ccc3OC(F)(F)F)ncc1CC2`, the 50% inhibitory concentration (IC50) is 335 nM in [1]; 182 nM in [2]; above 10000 nM in series [4]; 69 nM in [5]; 226 nM in series [6]; 336 nM in series [7]. Further, the 50% inhibitory concentration (IC50) in series [8] is 1460 nM; in series [9], 2380 nM; in series [21], 8 nM. For the same molecule, the solubility in series [3] is 8 µM (≈ 4.12 µg/mL); in series [10] it was above 3200 µg/mL. The apparent permeability coefficient (Papp) in series [11] came out at 19.6 ×10⁻⁶ cm/s. Further, the CLint scaled in [12] is 28.8 mL/min/kg. Also, the AUC(0-inf) in series [13] was found to be 5.37 µM·h; in series [18] it was 2.15 µM·h. Moreover, the clearance in [14] was 57.3 mL/min/kg. In addition, the Vd in [15] came out at 2.58 L/kg. Also, the half-life was 0.89 h in series [16] and 2.58 h in series [19]. Besides, the highest concentration (Cmax) in series [17] was found to be 610 nM. Moreover, in series [20], the bioavailability is 29%.
